Results from patent publication US9242973B2, “Chromane compounds” (CoMentis, Inc., priority 2012, dated 2016).
pIC50: −log10 of the molar value. Like-named read-outs stand apart in the source and are kept apart here.

Assays:
[1] = molecular target: BACE1 (Homo sapiens (Human), UniProt P56817); experiment: Test Example 1: BACE1 inhibition by FRET (MCA substrate); IC50 and Ki; conditions: read-out: Test Example 1 IC50
[2] = molecular target: hERG potassium channel (Homo sapiens (Human), UniProt Q12809); experiment: Test Example 5: hERG inhibition, automated patch clamp in hERG-expressing CHO cells; conditions: read-out: Test Example 5 hERG IC50, QPatch, room temperature
[3] = test system: Aβ production in SK-N-BE(2) neuroblastoma cells; experiment: Test Example 3: Aβ production inhibition in cell (Aβ40 ELISA, SK-N-BE(2)); conditions: Homo sapiens, SKNBE2, 6 h
[4] = FRET, MCA substrate 3 μM, BACE1 65 nM, pH 4.4
[5] = read-out: Test Example 3 IC50, SK-N-BE(2) cells, 6 hours, Aβ40 ELISA normalized by viability

BACE1, sequence (P56817 75-416): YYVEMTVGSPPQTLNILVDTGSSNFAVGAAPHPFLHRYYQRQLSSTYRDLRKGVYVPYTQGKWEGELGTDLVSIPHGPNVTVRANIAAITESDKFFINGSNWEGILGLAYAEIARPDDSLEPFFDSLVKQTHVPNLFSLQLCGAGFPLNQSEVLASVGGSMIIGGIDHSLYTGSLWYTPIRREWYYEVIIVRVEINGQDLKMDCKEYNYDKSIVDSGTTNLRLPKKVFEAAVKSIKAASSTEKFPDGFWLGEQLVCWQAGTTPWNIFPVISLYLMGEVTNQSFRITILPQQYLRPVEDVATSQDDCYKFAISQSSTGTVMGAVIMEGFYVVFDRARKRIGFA
hERG potassium channel, sequence (Q12809 whole entry): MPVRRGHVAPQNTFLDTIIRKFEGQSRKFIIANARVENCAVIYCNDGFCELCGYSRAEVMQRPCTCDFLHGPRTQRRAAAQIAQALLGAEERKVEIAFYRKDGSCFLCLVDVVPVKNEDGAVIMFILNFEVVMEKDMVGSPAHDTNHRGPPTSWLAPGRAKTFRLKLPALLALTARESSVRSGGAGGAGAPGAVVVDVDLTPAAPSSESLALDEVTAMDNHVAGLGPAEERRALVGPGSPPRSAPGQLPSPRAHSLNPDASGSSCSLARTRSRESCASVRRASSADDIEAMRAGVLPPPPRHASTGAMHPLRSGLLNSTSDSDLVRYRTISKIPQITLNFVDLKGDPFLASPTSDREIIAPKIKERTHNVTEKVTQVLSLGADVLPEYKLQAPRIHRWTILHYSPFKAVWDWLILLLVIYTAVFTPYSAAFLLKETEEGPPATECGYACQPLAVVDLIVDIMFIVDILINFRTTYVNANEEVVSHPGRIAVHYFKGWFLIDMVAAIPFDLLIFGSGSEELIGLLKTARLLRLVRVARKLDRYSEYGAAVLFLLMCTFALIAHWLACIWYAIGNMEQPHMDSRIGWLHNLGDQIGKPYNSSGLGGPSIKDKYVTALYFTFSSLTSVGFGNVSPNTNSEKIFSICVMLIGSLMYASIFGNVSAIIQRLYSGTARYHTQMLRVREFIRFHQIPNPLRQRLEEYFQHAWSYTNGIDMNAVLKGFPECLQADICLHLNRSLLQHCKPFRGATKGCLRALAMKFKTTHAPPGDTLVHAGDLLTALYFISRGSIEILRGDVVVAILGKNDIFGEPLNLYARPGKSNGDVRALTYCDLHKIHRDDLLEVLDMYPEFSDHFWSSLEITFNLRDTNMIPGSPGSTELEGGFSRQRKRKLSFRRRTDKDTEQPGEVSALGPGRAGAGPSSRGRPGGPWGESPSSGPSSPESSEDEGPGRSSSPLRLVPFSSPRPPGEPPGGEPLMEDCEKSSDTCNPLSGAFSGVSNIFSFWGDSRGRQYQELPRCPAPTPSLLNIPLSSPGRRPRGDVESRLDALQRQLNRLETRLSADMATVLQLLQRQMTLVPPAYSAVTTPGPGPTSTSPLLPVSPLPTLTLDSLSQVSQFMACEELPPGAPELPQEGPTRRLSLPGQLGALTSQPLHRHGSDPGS

Q: `CCCC1Oc2ccc(Br)cc2C2(COC(N)=N2)C12COC2` (single isomer, unassigned) [RP 11a] was tested. Which pIC50 [1, 4] did it give?
A: Its pIC50 is 4.81.

Q: `CC1(C)Oc2ccc(NC(=O)c3ccc(C#N)cn3)cc2C2(COC(N)=N2)C12COC2` (centres unmarked) [Example 197] was tested. Which pIC50 [2] did it give?
A: Its pIC50 is under 5.00.

Q: What does the source list for `CC1(C)Oc2ccc(NC(=O)c3ncc(Cl)cc3F)cc2C2(COC(N)=N2)C12COC2` (centres unmarked) [Example 30]?
A: pIC50 ([3]; read-out: Test Example 3 IC50): 8.64; pIC50 [1]: 7.01

Q: How did the pIC50 ([3]; read-out: Test Example 3 IC50) turn out when `CC1(C)Oc2ccc(NC(=O)c3ccc(F)cn3)cc2C2(COC(N)=N2)C12COC2` (centres unmarked) [Example 28] was run?
A: Its pIC50 is 7.72.

Q: And the pIC50 [1]?
A: The pIC50 was 6.81.

Q: `CCCC1Oc2ccc(Br)cc2C2(COC(N)=N2)C12COC2` (single isomer, unassigned) [RP 11b] was tested. Which pIC50 [1, 4] did it give?
A: The pIC50 was 4.76.

Q: With `NC1=NC2(CO1)c1cc(NC(=O)c3ccc(Cl)cn3)ccc1OCC21CC1` (centres unmarked) [RP 32] as the molecule, how does the pIC50 [1, 4] read?
A: The pIC50 was 6.38.

Q: `CC1(C)Oc2ccc(NC(=O)c3ccc(Cl)cn3)cc2C2(COC(N)=N2)C12COC2` (centres unmarked) [Example 27, N-(2-amino-2′,2′-dimethyldispiro[1,3-oxazole-4,4′-chromene-3′,3″-oxetan]-6′-yl)-5-chloropyridine-2-carboxamide] was tested. Which pIC50 ([3]; read-out: Test Example 3 IC50) did it give?
A: Its pIC50 is 8.03.

Q: With `CC1(C)Oc2ccc(-c3cc(Cl)cnc3Cl)cc2C2(COC(N)=N2)C12COC2` (centres unmarked) [RP 152] as the molecule, how does the pIC50 [3, 5] read?
A: The pIC50 was 6.96.

Q: How did the pIC50 [3, 5] turn out when `CC1(C)Oc2ccc(-c3cc(F)ncc3Cl)cc2C2(COC(N)=N2)C12COC2` (centres unmarked) [RP 158] was run?
A: The pIC50 was 6.43.

Q: How did the pIC50 [3, 5] turn out when `Cc1cc(F)cc(-c2ccc3c(c2)C2(COC(N)=N2)C2(COC2)C(C)(C)O3)c1` (centres unmarked) [RP 148] was run?
A: The pIC50 was 6.32.

Q: With `COc1cnc(C(=O)Nc2ccc3c(c2)C2(COC(N)=N2)C2(CC2)CO3)cn1` (centres unmarked) [RP 193] as the molecule, how does the pIC50 [3, 5] read?
A: Its pIC50 is 7.09.

Q: How did the pIC50 [3, 5] turn out when `CC1(C)Oc2ccc(NC(=O)c3ccc(Cl)cn3)cc2[C@@]2(COC(N)=N2)C12COC2` [Example 218, N-[(4S)-2-amino-2′,2′-dimethyldispiro[1,3-oxazole-4,4′-chromene-3′,3″-oxetan]-6′-yl]-5-chloropyridine-2-carboxamide] was run?
A: The pIC50 was 9.11.

Q: How did the pIC50 [3, 5] turn out when `COc1cncc(-c2ccc3c(c2)C2(COC(N)=N2)C2(CC2)CO3)c1` (centres unmarked) [RP 105] was run?
A: The pIC50 was 6.47.

Q: `NC1=NC2(CO1)c1cc(-c3cncc(OCC(F)(F)F)c3)ccc1OCC21CC1` (centres unmarked) [RP 58] was tested. Which pIC50 [3, 5] did it give?
A: The pIC50 was 6.74.

Q: How did the pIC50 [3, 5] turn out when `NC1=NC2(CO1)c1cc(-c3cc(F)ccc3F)ccc1OC1(CCC1)C21COC1` (centres unmarked) [RP 130] was run?
A: The pIC50 was 5.77.
